We go through 1 compound from EP3782622A1, “ADENOSINE A2B RECEPTOR AGONIST FOR THE TREATMENT OF MUSCU[…]” (Rheinische Friedrich-Wilhelms-Universität Bonn, priority 2019, dated 2021).

Experiment [1] deals with murinem Muskelgewebe. Briefly: Endogenous respiration (Oxygraph 2K): oxygen consumption of murine muscle tissue ex vivo. To be noted: Abbildung 2. The class given is cell-based, murin. How it is done: (§1) Skelettmuskelzellen oder -gewebe wurden 15 Minuten vor den […] Messungen wie angegeben behandelt (Oxygraph 2K; Oroboros Instruments). Die Proben wurden in die Oxygraphenkammer mit 2 ml Inkubationsmedium (0,5 mM Ethylenglycol-bis(aminoethylether)-N,N,N',N'-tetraessigsäure (EGTA), 3 mM MgCl2 · 6 H2O, 60 mM K-Lactobionat, 20 mM Taurin, 10 mM KH2PO4, 20 mM 2-(4-(2-Hydroxyethyl)-1-piperazinyl)-ethansulfonsäure (HEPES), 110 mM Saccharose und 1 g/l Bovines Serumalbumin (BSA), pH 7,1) gebracht. In vitro-Atmungswerte wurden bei Erreichen eines stationären Zustandes aufgezeichnet, gefolgt von der Zugabe von Substraten (Zustand 1: endogen; Zustand 2: Adenosindiphosphat (ADP); Zustand 3: Succinat; Zustand 4: Oligomycin; entkoppelt: 2,4-dinitrophenol, carbonylcyanide p-trifluoromethoxyphenyl-hydrazine (FCCP)). Die Atmungsraten wurden auf den Gesamtproteingehalt normalisiert.

The subject of experiment [2] is Mäusen. The experiment can be described thus: Muscle mass in mice after treatment (muscle analysis/sarcopenia). The class given is in vivo, Mäuse. To be noted: Abbildung 6; for Muskelmasse: mice, 1 mg/kg intraperitoneal once daily for four weeks. From the text: (§2) WT männliche C57BL/6 Mäuse wurden von Janvier gekauft. A2B-/- Mäuse wurden von M. Idzko, Freiburg, Deutschland, zur Verfügung gestellt. ATA2B-KO (A2Bfloxed/floxed;AdipoCre+) und Con-A2B (A2Bfloxed/floxed;AdipoCre-) Mäuse wurden durch Züchtung von A2Bfloxed/floxed Mäusen (erzeugt von Holger K. Eltzschig) mit Adiponectin-Cre (Jackson Laboratories) Mäusen zur Herstellung von A2Bfloxed;AdipoCre+ heterozygoten Mäusen erzeugt. Heterozygote Mäuse wurden mit A2Bfloxed/floxed gezüchtet. Männliche Wurfgeschwister wurden zufällig experimentellen Gruppen zugeordnet. Halbfettdiät (HFD, 60% Energie aus Fett) und Kontrolldiät wurden von ssniff Spezialdiäten GmbH (Soest, DE) gekauft. Mäuse wurden in einem täglichen Zyklus von 12 Stunden Licht (0600 bis 1800) und 12 Stunden Dunkelheit (1800 bis 0600) bei 23 ± 1°C gehalten und erhielten freien Zugang zu Futter und Wasser. Für die Muskelanalyse/Sarkopenie wurden Mäusen vier Wochen lang einmal täglich intraperitoneal mit 1 mg/kg 2-({6-Amino-3,5-dicyano-4-[4-(cyclopropylmethoxy)-phenyl]-pyridin-2-yl}sulfanyl)-acetamid (Bay 60-6583) injiziert.

Experiment [3] has as its system primären humanen Skelettmuskelzellen. The experiment can be described thus: Endogenous respiration (Oxygraph 2K): oxygen consumption of primary human skeletal muscle cells. The experiment is classed as cell-based. How it is done:
as §1

The subject of experiment [4] is Mäusen. The experiment can be described thus: Muscle strength of mice after treatment. The class given is in vivo, Mäuse. Particulars: Abbildung 8; for Muskelkraft: mice.
From the text: as §2
Extensor digitorum longus (EDL) Muskeln aus den Hinterbeinen von Mäusen wurden von Sehne zu Sehne isoliert, in eine wässrige Pufferlösung aus Krebs-Puffer (118 mM NaCl, 3,4 mM KCl, 0,8 mM MgSO4, 1,2 mM KH2PO4, 11,1 mM Glukose, 25 mM NaHCO3, 2,5 mM CaCl2) getaucht und bei Raumtemperatur mit Carbogen (ein Gasgemisch aus 5 Volumenteilen Kohlenstoffdioxid (CO2) und 95 Volumenteilen Sauerstoff (O2)) umspült. Die Muskeln wurden zwischen der Klemme eines Hebelarms und dem Haken eines Kraftaufnehmers eines Myographen (SI Instruments) ausgerichtet. Dann wurden die Muskeln gedehnt, bis ein einzelner Impuls während einer Zuckungsstimulation die maximale Kraft hervorrief. Es wurden Zuckungsstimulationen (2 V, 1 ms) für […] aufgezeichnet und die Kraft gemessen. Die gesamte Muskelquerschnittsfläche wurde geschätzt, indem die Muskelmasse durch das Produkt aus der Muskellänge, dem Verhältnis von […] (0,44 bei EDL) und der Dichte des Säugetiermuskels (1,06 mg/mm^3) dividiert wurde. […]

Experiment [5] has as its system Satellitenzellen. The experiment can be described thus: Isolation and amount of satellite cells from treated old mice. Particulars: 1 mg/kg once daily for four weeks. The class given is in vivo, Mäuse.
From the text: as §2, with “injiziert. […]” for “injiziert.”

The test system of experiment [6] is humanen Skelettmuskel-Explantaten. Briefly: Endogenous respiration (Oxygraph 2K): oxygen consumption of human skeletal muscle explants. The experiment is classed as cell-based. To be noted: treated 15 min before measurement. How it is done: as §1
Experiment [7] relates to primäre humane Skelettmuskelzellen. Briefly: Glucose uptake test (abcam kit ab136956). The experiment is classed as cell-based. To be noted: primary human skeletal muscle cells, Abbildung 5. From the text: Die Glukoseaufnahme wurde mit murinen und humanen SKM-Zellen unter Verwendung des Glukoseaufnahmekits von abcam (ab136956) (abcam plc., Cambridge, UK) nach Herstellerangaben gemessen.

For `N#Cc1c(N)nc(SCC(N)=O)c(C#N)c1-c1ccc(OCC2CC2)cc1` [BAY 60-6583, 2-({6-Amino-3,5-dicyano-4-[4-(cyclopropylmethoxy)-phenyl]pyridin-2-yl}sulfanyl)-acetamid], the Sauerstoffverbrauch result in experiment [1] is “signifikant erhöht”. The Muskelmasse entry is listed as “dem alterungsbedingten Verlust von Muskelmasse entgegenwirkt” in experiment [2] (1 mg/kg) and “signifikant gesteigert” in experiment [2] (listed as Bay 60-6583, 1 mg/kg). The “Muskelmasse, treated aged mice compared with young controls” value in experiment [2] (treated aged (20 months) mice vs young (2 months) control animals) is “vergleichbare Muskelmasse wie junge (2 Monate alte) Kontrolltiere”. Also, the “Sauerstoffverbrauch in Bezug auf das veratmete Protein” value was “signifikant erhöht” in experiment [3] (Abbildung 4) and “signifikant gesteigert” in experiment [3] (Abbildung 4, listed as Bay 60-6583). Further, the results for the Muskelkraft entry in experiment [4] and in experiment [4] (listed as Bay 60-6583) were “signifikant erhöht” and “signifikant gesteigert”, respectively. Also, the “Muskelkraft, treated aged mice compared with young controls” value in experiment [4] (treated aged mice vs young control animals) was “so viel Kraft wie junge Kontrolltiere”. The “Menge an Satellitenzellen” value in experiment [5] (Abbildung 9, 1 mg/kg) is on record as “erhöht”; in experiment [5] (Abbildung 9, listed as Bay 60-6583, 1 mg/kg), “signifikant erhöht”. The “Sauerstoffverbrauch in Bezug auf die Gewebemasse” value was “signifikant erhöht” in experiment [6] (Abbildung 1) and “signifikant gesteigert” in experiment [6] (Abbildung 1, listed as Bay 60-6583). Also, the figures for the “Aufnahme von Glukose” value in experiment [7] and in experiment [7] (listed as Bay 60-6583) were “signifikant erhöht” and “signifikant gesteigert”, respectively.
